Results published in patent US20130287807A1, “COMPOUNDS FOR TREATING SYMPTOMS ASSOCIATED WITH PARKINSON'S DISEASE” (priority 2008, published 2013).
Entries after “also recorded” stand apart in the source; their conditions may differ. Square brackets hold non-standard residues; d marks the D form. Ends that are not written are not given here. Tle = CC(C)(C)[C@H](N)C(=O)O

Legend:
[1] = system: monoclonal antibody MV-001; test: In vitro binding assay (ELISA), BSA-coupled peptides, parental antibody MV-001; parameters: species or system C57/B16 mice; details: Table 1C; peptide-BSA on plate, compared to original epitope
Protocol: Peptides derived from Phage Display as well as variants thereof were coupled to BSA and bound to ELISA plates (1 μM; as indicated in the respective figures) and subsequently incubated with the monoclonal antibody that was used for the screening procedure to analyse binding capacity of identified peptides.
Legend to Table 1C: the binding capacity is coded by the following binding code: 1:X describes the dilution factor of the parental AB

[2] = system: monoclonal antibody (DAEFRH-peptide-specific); test: Inhibition assay (ELISA): mimotope peptides compete with plate-bound original epitope DAEFRH for recognition by the monoclonal antibody; type: binding, Mice; parameters: key to inhibition (s/m/—): s: strong inhibition; m: moderate inhibition; —: -: no inhibition; details: for inhibition of binding of the monoclonal antibody to the original epitope: competition ELISA, plate-bound DAEFRH-C-BSA, text to FIGS. 2-9; for inhibition (s/m/—): peptide lists of Example 4; for Inhibitory capacity of mimotopes: summary Tables 1 and 2 (Examples 2, 3)
Excerpt: Mice are vaccinated with the 6mer peptide DAEFRH (natural N-terminal Aβ42 sequence) linked to the protein bovine serum albumin BSA (to make use of the hapten-carrier-effect), emulsified in CFA (first injection) and IFA (booster injections). DAEFRH-peptide-specific, antibody-producing hybridomas are detected by ELISA (DAEFRH-peptide-coated ELISA plates).
FIGS. 2 and 3 describe the results of inhibition assays performed with mimotope peptides included in and obtained from the 5 libraries (as described in WO 2004/062556). The mimotope peptides compete with the original epitope for recognition by the monoclonal antibody. Original epitope and mimotope peptides contain an additional C at the C-terminus for coupling to a protein carrier (if desired).
(§1) After blocking with PBS/BSA 1% (200 μl/well, 12 h, 4° C.), the plates are washed 3× times with PBS/Tween. Then, biotinylated monoclonal antibody (1:2000, 50 μl/well) and peptides (50 μl/well) at 50, 5, 0.5, 0.05, 0.005, and 0.0005 μg/ml are added for 20 min. at 37° C. The plates are washed 3× times with PBS/Tween and are incubated with horseradish peroxidase (HRP)-labeled streptavidin (100 μl/well, 30 min, RT). The plates are washed 5× times with PBS/Tween and are incubated with ABTS+H2O2(0.1% w/v, 10 to 45 min) and the reaction is stopped with citric acid followed by photometric evaluation (wavelength 405 nm).
as §1, with “different concentrations” for “50, 5, 0.5, 0.05, 0.005, and 0.0005 μg/ml”, “ABTS+H2O2 (0.1%” for “ABTS+H2O2(0.1%”
as §1, with “different concentrations” for “50, 5, 0.5, 0.05, 0.005, and 0.0005 μg/ml”

Row | Compound | Binding Capacity [1] | other results
1 | SNSEFRRC [p4743] | 3 (strong binding :>20000) | 
2 | NELFKHFC [p4727] | 2 (medium binding :4000-20000) | 
3 | SAEFRTQ [Peptide 4015] |  | inhibition of binding of the monoclonal antibody to the original epitope [2]: strongly block epitope recognition; inhibition (s/m/—) [2]: s
4 | SAMRHSLC [p4732] | 2 (medium binding :4000-20000) | 
5 | THMEFRRC [p4745] | 3 (strong binding :>20000) | 
6 | SAEFRAT [Peptide 4016] |  | inhibition of binding of the monoclonal antibody to the original epitope [2]: strongly block epitope recognition; inhibition (s/m/—) [2]: s
7 | QPNLFYHC [p4713] | 1 (weak binding :<4000) | 
8 | SLMRHSSC [p4721] | 2 (medium binding :4000-20000) | 
9 | VELRHSRC [p4704] | 2 (medium binding :4000-20000) | 
10 | DTYFPRSC [p4703] | 2 (medium binding :4000-20000) | 
11 | EFLRHTLC [p4722] | 3 (strong binding :>20000) | 
12 | ATFRHSPC [p4716] | 2 (medium binding :4000-20000) | 
13 | YREFFI (YREFFIC) [Peptide 3003] |  | inhibition of binding of the monoclonal antibody to the original epitope [2]: not able to inhibit; Inhibitory capacity of mimotopes [2]: none
14 | GSEFRDY [Peptide 4013] |  | inhibition of binding of the monoclonal antibody to the original epitope [2]: moderately inhibit; inhibition (s/m/—) [2]: m
15 | N=C(N)NCCC[C@H](NC(=O)[C@H](Cc1ccccc1)NC(=O)[C@H](CCC(=O)O)NC(=O)[C@H](Cc1ccccc1)NC(=O)[C@@H](N)CO)C(=O)NCC(=O)N[C@@H](CS)C(=O)O [Peptide 3009, SFEFRG] |  | Inhibitory capacity of mimotopes [2]: weak
16 | TSTEMWHC [p4754] | 1 (weak binding :<4000) | 
17 | APMYFPHC [p4717] | 2 (medium binding :4000-20000) | 
18 | DAEFRH (DAEFRHC) [Peptide 1737, reference compound] |  | inhibition of binding of the monoclonal antibody to the original epitope [2]: can successfully compete
19 | CC[C@H](C)[C@H](NC(=O)[C@H](CCCCN)NC(=O)[C@H](CC(C)C)NC(=O)[C@H](CCC(=O)O)NC(=O)[C@H](CCCCN)NC(=O)[C@@H](N)CC(=O)O)C(=O)N[C@@H](CS)C(=O)O [Peptide 1236, DKELKI] |  | inhibition of binding of the monoclonal antibody to the original epitope [2]: block epitope recognition; Inhibitory capacity of mimotopes [2]: weak

Row | Compound | Binding Capacity [1] | other results
20 | SEFSHSSC [p4712] | 3 (strong binding :>20000) | 
21 | TYFSHSLC [p4718] | 2 (medium binding :4000-20000) | 
22 | EDWFFWHC [p4709] | 1 (weak binding :<4000) | 
23 | SAGSFRHC [p4710] | 3 (strong binding :>20000) | 
24 | SSSFFPRC [p4708] | 2 (medium binding :4000-20000) | 
25 | MLPFRHGC [p4731] | 2 (medium binding :4000-20000) | 
26 | CC[C@H](C)[C@H](NC(=O)[C@H](CCCNC(=N)N)NC(=O)[C@H](CC(C)C)NC(=O)[C@H](CCC(=O)O)NC(=O)[C@H](Cc1c[nH]c2ccccc12)NC(=O)[C@@H](N)CC(=O)O)C(=O)N[C@@H](CS)C(=O)O [Peptide 3002, DWELRI] |  | inhibition of binding of the monoclonal antibody to the original epitope [2]: block epitope recognition; Inhibitory capacity of mimotopes [2]: intermediate
27 | SWEFRNP [Peptide 4017] |  | inhibition of binding of the monoclonal antibody to the original epitope [2]: strongly block epitope recognition; inhibition (s/m/—) [2]: s
28 | DISFRG (DISFRGC) [Peptide 3010] |  | inhibition of binding of the monoclonal antibody to the original epitope [2]: not inhibitory; Inhibitory capacity of mimotopes [2]: none
29 | IGFRHDSC [p4742] | 2 (medium binding :4000-20000) | 
30 | YSMRHDAC [p4705] | 2 (medium binding :4000-20000) | 
31 | LQFKHSTC [p4734] | 2 (medium binding :4000-20000) | 
32 | NELRHSTC [p4701] | 3 (strong binding :>20000) | 
33 | YREFRI (YREFRIC) [Peptide 3004] |  | inhibition of binding of the monoclonal antibody to the original epitope [2]: block epitope recognition; also recorded: only inhibitory at a high concentration (50 μg/ml); Inhibitory capacity of mimotopes [2]: weak
34 | SELRHSTC [p4744] | 3 (strong binding :>20000) | 
35 | DKE(tBuGly)R (DKE[Tle]R) [Peptide 4061] |  | inhibition of binding of the monoclonal antibody to the original epitope [2]: not inhibitory; inhibition (s/m/—) [2]: —
36 | SWEFRLY [Peptide 4018] |  | inhibition of binding of the monoclonal antibody to the original epitope [2]: strongly block epitope recognition; inhibition (s/m/—) [2]: s
37 | WHWSWR (WHWSWRC) [Peptide 4004] |  | inhibition of binding of the monoclonal antibody to the original epitope [2]: not able to inhibit; Inhibitory capacity of mimotopes [2]: none
38 | AYFPHTSC [p4751] | 2 (medium binding :4000-20000) | 

Row | Compound | Binding Capacity [1] | other results
39 | CC[C@H](C)[C@H](NC(=O)[C@H](CCCNC(=N)N)NC(=O)[C@H](CC(C)C)NC(=O)[C@H](CCC(=O)O)NC(=O)[C@H](CCCCN)NC(=O)[C@@H](N)CC(=O)O)C(=O)N[C@@H](CS)C(=O)O [Peptide 3001, DKELRI] |  | inhibition of binding of the monoclonal antibody to the original epitope [2]: block epitope recognition; Inhibitory capacity of mimotopes [2]: strong
40 | QLFKHSPC [p4747] | 3 (strong binding :>20000) | 
41 | QELKRYYC [p4724] | 1 (weak binding :<4000) | 
42 | ATPLFRHC [p4723] | 3 (strong binding :>20000) | 
43 | LHIPFRHC [p4726] | 3 (strong binding :>20000) | 
44 | QVMRHHAC [p4711] | 2 (medium binding :4000-20000) | 
45 | SQYFPRPC [p4729] | 2 (medium binding :4000-20000) | 
46 | AANYFPRC [p4706] | 2 (medium binding :4000-20000) | 
47 | SNFRHSVC [p4749] | 3 (strong binding :>20000) | 
48 | SQSYFKHC [p4755] | 3 (strong binding :>20000) | 
49 | APIQFRHC [p4750] | 3 (strong binding :>20000) | 
50 | AEFSHWHC [p4737] | 2 (medium binding :4000-20000) | 
51 | ATFRHSTC [p4735] | 2 (medium binding :4000-20000) | 
52 | NSSELRHC [p4752] | 3 (strong binding :>20000) | 
53 | TPLMFWHC [p4733] | 1 (weak binding :<4000) | 
54 | TGLMFKHC [p4736] | 2 (medium binding :4000-20000) | 
55 | AEFMHSVC [p4739] | 2 (medium binding :4000-20000) | 
56 | HEPLFSHC [p4719] | 1 (weak binding :<4000) | 
57 | GEMRHQPC [p4702] | 3 (strong binding :>20000) | 
